Assays:
Assay in all cases: biochemical
[1] = biological target: T1, ABL(E255K) (Homo sapiens, UniProt P00519, E255K)
T1 construct: gene ABL1
How it was run: (§1)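 Human kinases phosphorylating kinase-specific synthetic peptides, assayed by mobility shift (MSA) or IMAP fluorescence polarization, in 20 mM HEPES pH 7.5, 0.01% Triton X-100, 2 mM DTT with substrate/ATP-metal. Reactions ran 1 or 5 h at room temperature; activity = P/(P + S) from product and substrate peak heights.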

[2] = biological target: AKT2 (Homo sapiens, UniProt P31751)
Sequence of AKT2 (P31751 whole entry): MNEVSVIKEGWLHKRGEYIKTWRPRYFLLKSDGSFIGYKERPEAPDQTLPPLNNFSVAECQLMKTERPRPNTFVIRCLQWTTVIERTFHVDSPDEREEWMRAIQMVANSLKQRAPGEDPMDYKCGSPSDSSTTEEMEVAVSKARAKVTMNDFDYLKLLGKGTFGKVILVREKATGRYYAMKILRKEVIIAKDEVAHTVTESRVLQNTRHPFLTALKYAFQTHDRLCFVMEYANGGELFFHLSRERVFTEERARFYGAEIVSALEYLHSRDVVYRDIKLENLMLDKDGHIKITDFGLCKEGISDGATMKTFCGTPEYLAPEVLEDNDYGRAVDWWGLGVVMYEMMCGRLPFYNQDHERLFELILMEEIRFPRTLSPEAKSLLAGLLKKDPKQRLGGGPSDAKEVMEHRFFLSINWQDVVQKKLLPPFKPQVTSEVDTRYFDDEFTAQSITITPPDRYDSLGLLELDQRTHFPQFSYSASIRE
How it was run: as §1

[3] = biological target: BLK (Homo sapiens, UniProt P51451)
How it was run: as §1

[4] = biological target: BRSK2 (Homo sapiens, UniProt Q8IWQ3)
How it was run: as §1

[5] = biological target: T2, CK1ε (Homo sapiens, UniProt P49674)
T2 construct: gene CSNK1E
How it was run: as §1

[6] = biological target: CLK3 (Homo sapiens, UniProt P49761)
Sequence of CLK3 (P49761 whole entry): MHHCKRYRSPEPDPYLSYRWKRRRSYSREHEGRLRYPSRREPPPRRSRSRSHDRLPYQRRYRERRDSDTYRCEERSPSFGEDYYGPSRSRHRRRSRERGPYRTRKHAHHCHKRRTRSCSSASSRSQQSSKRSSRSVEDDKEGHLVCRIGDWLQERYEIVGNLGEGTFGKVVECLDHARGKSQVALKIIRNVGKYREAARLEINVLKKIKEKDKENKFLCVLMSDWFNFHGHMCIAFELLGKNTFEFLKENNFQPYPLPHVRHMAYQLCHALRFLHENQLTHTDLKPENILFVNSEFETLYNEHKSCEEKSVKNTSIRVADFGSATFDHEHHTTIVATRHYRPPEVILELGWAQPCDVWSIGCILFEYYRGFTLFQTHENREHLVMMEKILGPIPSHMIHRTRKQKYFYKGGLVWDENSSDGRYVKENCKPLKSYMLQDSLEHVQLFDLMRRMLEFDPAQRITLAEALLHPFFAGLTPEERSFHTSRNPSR
How it was run: as §1

[7] = biological target: T3, CaMK1α (Homo sapiens, UniProt Q14012)
T3 construct: gene CAMK1
How it was run: as §1

[8] = biological target: FGFR3(K650E) (Homo sapiens, UniProt P22607, K650E)
How it was run: as §1

[9] = biological target: T4, FYN(isoform b) (Homo sapiens, UniProt P06241)
T4 construct: isoform b
How it was run: as §1

[10] = biological target: HCK (Homo sapiens, UniProt P08631)
How it was run: as §1

[11] = biological target: T5, IRR (Homo sapiens, UniProt P14616)
T5 construct: gene INSRR
How it was run: as §1

[12] = biological target: KIT(D816V) (Homo sapiens, UniProt P10721, D816V)
Sequence of KIT(D816V) (P10721 whole entry D816V): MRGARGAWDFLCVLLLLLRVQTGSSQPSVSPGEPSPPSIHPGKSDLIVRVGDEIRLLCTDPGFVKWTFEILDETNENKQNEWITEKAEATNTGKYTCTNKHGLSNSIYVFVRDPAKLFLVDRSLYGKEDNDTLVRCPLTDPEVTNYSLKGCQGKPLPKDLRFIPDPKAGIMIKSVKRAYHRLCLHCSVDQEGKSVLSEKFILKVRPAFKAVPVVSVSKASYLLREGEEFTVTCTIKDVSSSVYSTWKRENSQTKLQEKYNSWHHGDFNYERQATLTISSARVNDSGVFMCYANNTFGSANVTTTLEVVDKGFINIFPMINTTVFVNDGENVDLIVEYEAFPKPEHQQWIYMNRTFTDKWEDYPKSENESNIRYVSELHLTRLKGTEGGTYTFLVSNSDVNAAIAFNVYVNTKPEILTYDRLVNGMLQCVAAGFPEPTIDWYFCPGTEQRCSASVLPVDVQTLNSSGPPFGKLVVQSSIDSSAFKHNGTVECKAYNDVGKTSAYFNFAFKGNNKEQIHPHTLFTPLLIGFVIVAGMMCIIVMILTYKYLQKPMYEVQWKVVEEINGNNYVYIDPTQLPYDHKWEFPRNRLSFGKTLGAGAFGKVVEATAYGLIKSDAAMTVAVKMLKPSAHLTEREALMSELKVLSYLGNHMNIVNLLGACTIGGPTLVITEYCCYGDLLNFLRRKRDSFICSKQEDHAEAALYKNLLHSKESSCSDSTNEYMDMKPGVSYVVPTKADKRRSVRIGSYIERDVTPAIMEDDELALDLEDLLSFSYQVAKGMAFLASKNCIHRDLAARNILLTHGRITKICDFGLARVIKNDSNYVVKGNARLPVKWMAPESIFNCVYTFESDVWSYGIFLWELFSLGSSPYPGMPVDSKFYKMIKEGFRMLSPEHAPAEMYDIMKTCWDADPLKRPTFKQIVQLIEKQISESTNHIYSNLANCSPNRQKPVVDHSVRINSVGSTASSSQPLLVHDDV
How it was run: as §1

[13] = biological target: KIT(V560G) (Homo sapiens, UniProt P10721, V560G)
How it was run: as §1

[14] = biological target: LTK (Homo sapiens, UniProt P29376)
How it was run: as §1

[15] = biological target: MARK3 (Homo sapiens, UniProt P27448)
Sequence of MARK3 (P27448 whole entry): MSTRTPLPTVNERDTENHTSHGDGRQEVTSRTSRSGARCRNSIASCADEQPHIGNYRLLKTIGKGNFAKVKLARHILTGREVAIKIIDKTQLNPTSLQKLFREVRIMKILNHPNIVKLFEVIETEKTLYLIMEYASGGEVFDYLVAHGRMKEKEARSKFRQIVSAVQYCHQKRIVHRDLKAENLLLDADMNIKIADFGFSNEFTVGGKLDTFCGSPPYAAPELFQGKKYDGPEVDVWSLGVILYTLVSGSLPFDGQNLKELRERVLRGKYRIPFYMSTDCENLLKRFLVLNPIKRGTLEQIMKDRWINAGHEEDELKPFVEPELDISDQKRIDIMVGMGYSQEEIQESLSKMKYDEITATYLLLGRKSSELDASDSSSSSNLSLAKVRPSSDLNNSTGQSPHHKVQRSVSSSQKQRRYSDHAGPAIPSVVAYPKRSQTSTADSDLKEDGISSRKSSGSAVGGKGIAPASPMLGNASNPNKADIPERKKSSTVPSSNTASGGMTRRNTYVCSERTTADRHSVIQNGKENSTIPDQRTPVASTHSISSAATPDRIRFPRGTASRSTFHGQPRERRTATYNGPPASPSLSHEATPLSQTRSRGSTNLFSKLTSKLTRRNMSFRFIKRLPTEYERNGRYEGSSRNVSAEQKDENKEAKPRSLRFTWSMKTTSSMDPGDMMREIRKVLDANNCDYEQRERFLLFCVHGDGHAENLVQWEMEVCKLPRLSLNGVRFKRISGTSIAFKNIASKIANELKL
How it was run: as §1

[16] = biological target: NEK4 (Homo sapiens, UniProt P51957)
Sequence of NEK4 (P51957 whole entry): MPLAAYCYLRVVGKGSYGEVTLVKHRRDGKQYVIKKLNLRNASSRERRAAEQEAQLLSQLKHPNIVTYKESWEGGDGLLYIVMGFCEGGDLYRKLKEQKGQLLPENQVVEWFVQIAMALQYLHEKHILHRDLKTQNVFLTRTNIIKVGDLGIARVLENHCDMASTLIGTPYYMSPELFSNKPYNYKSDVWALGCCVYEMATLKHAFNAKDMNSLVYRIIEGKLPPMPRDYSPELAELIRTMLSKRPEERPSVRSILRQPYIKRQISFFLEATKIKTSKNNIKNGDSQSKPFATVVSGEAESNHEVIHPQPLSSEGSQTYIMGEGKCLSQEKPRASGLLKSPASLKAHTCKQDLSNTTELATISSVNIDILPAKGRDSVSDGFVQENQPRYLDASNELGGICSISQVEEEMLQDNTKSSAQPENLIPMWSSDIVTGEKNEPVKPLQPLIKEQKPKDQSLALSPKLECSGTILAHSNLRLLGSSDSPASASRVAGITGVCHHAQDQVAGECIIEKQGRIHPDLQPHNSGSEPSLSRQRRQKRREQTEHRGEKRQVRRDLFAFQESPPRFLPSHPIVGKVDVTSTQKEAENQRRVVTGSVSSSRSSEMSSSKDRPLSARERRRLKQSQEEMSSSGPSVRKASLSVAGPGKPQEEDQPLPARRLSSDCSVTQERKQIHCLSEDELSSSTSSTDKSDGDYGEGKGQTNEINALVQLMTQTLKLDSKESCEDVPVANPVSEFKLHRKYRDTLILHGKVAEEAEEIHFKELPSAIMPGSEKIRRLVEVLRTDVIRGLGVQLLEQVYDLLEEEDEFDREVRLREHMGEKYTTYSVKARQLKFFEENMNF
How it was run: as §1

[17] = biological target: T6, PEK (Homo sapiens, UniProt Q9NZJ5)
T6 construct: gene EIF2AK3
T6 sequence (Q9NZJ5 whole entry): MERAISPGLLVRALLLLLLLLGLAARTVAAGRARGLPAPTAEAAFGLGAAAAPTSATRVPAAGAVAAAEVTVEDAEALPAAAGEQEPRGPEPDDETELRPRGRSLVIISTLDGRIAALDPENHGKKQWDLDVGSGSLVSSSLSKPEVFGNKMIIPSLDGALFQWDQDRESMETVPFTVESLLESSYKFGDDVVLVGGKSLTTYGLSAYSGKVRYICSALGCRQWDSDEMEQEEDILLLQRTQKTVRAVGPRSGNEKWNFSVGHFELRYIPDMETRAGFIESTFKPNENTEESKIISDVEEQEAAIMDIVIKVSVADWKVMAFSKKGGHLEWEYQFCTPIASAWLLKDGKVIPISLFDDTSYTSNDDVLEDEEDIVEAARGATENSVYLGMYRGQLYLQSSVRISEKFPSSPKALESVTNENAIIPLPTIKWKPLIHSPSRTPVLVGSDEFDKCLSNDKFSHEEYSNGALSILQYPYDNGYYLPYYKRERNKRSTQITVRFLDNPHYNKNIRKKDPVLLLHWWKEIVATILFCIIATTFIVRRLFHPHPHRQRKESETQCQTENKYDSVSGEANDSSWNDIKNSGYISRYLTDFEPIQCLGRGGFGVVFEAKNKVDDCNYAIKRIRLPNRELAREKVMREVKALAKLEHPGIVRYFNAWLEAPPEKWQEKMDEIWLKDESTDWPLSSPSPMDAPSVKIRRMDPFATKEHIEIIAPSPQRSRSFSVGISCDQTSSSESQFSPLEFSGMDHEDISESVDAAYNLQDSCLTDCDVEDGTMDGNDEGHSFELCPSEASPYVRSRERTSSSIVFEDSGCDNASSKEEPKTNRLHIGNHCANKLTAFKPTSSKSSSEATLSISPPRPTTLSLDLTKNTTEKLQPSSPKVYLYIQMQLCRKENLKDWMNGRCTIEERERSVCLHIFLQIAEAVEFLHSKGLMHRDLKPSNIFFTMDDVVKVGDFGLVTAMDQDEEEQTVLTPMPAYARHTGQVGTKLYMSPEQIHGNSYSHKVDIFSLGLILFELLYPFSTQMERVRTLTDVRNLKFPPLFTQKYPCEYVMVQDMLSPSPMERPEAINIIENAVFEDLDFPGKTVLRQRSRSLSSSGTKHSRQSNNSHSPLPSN
How it was run: as §1

[18] = biological target: PHKG2 (Homo sapiens, UniProt P15735)
Sequence of PHKG2 (P15735 whole entry): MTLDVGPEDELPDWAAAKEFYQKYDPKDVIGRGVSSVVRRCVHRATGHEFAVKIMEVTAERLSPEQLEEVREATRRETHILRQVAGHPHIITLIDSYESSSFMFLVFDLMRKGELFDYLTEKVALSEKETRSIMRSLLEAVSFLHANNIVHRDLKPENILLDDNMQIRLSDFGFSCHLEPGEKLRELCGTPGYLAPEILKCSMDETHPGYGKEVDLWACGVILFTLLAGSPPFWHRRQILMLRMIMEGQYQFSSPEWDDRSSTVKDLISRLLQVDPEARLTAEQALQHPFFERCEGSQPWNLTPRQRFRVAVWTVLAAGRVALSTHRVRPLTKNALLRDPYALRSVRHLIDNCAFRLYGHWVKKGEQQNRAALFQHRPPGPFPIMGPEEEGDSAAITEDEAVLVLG
How it was run: as §1

[19] = biological target: T7, PKACγ (Homo sapiens, UniProt P22612)
T7 construct: gene PRKACG
How it was run: as §1

[20] = biological target: PKN1 (Homo sapiens, UniProt Q16512)
How it was run: as §1

[21] = biological target: PLK1 (Homo sapiens, UniProt P53350)
How it was run: as §1

[22] = biological target: PRKX (Homo sapiens, UniProt P51817)
How it was run: as §1

[23] = biological target: T8, RSK4 (Homo sapiens, UniProt Q9UK32)
T8 construct: gene RPS6KA6
How it was run: as §1

[24] = biological target: SLK (Homo sapiens, UniProt Q9H2G2)
How it was run: as §1

[25] = biological target: SPHK1 (Homo sapiens, UniProt Q9NYA1)
How it was run: as §1

[26] = biological target: SPHK2 (Homo sapiens, UniProt Q9NRA0)
How it was run: as §1

[27] = biological target: SRPK1 (Homo sapiens, UniProt Q96SB4)
How it was run: as §1

[28] = biological target: TNK1 (Homo sapiens, UniProt Q13470)
How it was run: as §1

[29] = biological target: T9, TRKB (Homo sapiens, UniProt Q16620)
T9 construct: gene NTRK2
How it was run: as §1

[30] = biological target: WNK1 (Homo sapiens, UniProt Q9H4A3)
How it was run: as §1

[31] = biological target: WNK2 (Homo sapiens, UniProt Q9Y3S1)
How it was run: as §1

c1cc(-c2ccc3[nH]ncc3c2)ccn1 [TG693, 5-(4-pyridinyl)-1H-indazole]
inhibition at 1 µM [1]: -4.2% | inhibition at 1 µM [2]: -3% | inhibition at 1 µM [3]: -2.2% | inhibition at 1 µM [4]: 6.7% | inhibition at 1 µM [5]: 8% | inhibition at 1 µM [6]: 11.7% | inhibition at 1 µM [7]: 1.5% | inhibition at 1 µM [8]: 5.2% | inhibition at 1 µM [9]: 0.6% | inhibition at 1 µM [10]: -3% | inhibition at 1 µM [11]: 3% | inhibition at 1 µM [12]: -1.1% | inhibition at 1 µM [13]: -2.6% | inhibition at 1 µM [14]: 3% | inhibition at 1 µM [15]: 15.5% | inhibition at 1 µM [16]: -4.2% | inhibition at 1 µM [17]: 5% | inhibition at 1 µM [18]: 6.3% | inhibition at 1 µM [19]: 1.5% | inhibition at 1 µM [20]: 34.5% | inhibition at 1 µM [21]: -8.5% | inhibition at 1 µM [22]: 12.2% | inhibition at 1 µM [23]: -6.5% | inhibition at 1 µM [24]: 1.2% | inhibition at 1 µM [25]: -2.3% | inhibition at 1 µM [26]: 4.1% | inhibition at 1 µM [27]: 0.6% | inhibition at 1 µM [28]: 3.8% | inhibition at 1 µM [29]: 0.1% | inhibition at 1 µM [30]: 4.1% | inhibition at 1 µM [31]: 4%
